Assays:
ADAMTS4 = ADAMTS4 mRNA expression in LPS-stimulated human OA cartilage cells (quantitative real-time PCR); format: cell-based; settings: Amlexanox 100 μM and/or hyaluronic acid 1 mg/mL, 48 hours, LPS 10 μg/mL 6 hours, GAPDH internal standard
Protocol: (§1) Human cartilage cells were isolated and cultured from an excised cartilage fragment that is usually discarded after artificial knee joint replacement surgery. All donors provided consent to participate in the clinical research approved by the Ethics Review Committee. Due consideration was given to personal information of all donors in handling. Donor's knee joints were OA grade (Kellgren-lawrence) III to IV on X-rays.
(§2) Amlexanox (concentration in medium: 100 μM) and hyaluronic acid (concentration in medium: 1 mg/mL, weight-average molecular weight: 500,000 or more and 1,490,000 or less) were added to human OA cartilage cells and incubated for 48 hours. As a control, those that had been incubated for 48 hours without any administration, and those that were administered with Amlexanox (concentration in medium: 100 μM) and hyaluronic acid (concentration in medium: 1 mg/mL, weight-average molecular weight: 500,000 or more and 1,490,000 or less) and incubated for 48 hours were also prepared.
(§3) Human OA cartilage cells into which Amlexanox and hyaluronic acid were added were stimulated with lipopolysaccharide (LPS) (concentration in medium: 10 μg/mL) and incubated for 6 hours. Thereafter, mRNA was recovered from the above cells. After reverse transcription, quantitative real-time PCR was performed using LightCycler 2.0 system (Roche). GAPDH was used as an internal standard.

MMP13 = MMP13 mRNA expression in LPS-stimulated human OA cartilage cells (quantitative real-time PCR); format: cell-based; settings: Amlexanox 100 μM and/or hyaluronic acid 1 mg/mL, 48 hours, LPS 10 μg/mL 6 hours, GAPDH internal standard
Protocol: as §1, §2, §3

[1] = system: OA-induced mice (DMM model); experiment: Cartilage degeneration in OA-induced mice (DMM model), OARSI histopathological score after intraarticular administration; format: in vivo; settings: intraarticular 10 μL every 5 days for 8 weeks, Amlexanox 100 μM, hyaluronic acid 10 mg/mL, versus physiological saline group, 8 weeks after surgery
Protocol: OA was induced in 12-week-old male mice (wild type mice and GRK5KO mouse) by removing the ligament, which connects and secures the medial meniscus to the tibia, to cause the knee joint instability (DMM model) (hereinafter, referred to as a “DMM group” in some cases). In addition, as a control, mice subjected to a sham operation by the same method without removing the ligament were also prepared (hereinafter, referred to as a “sham group” in some cases). Subsequently, immediately after the OA induction, four groups were classified as follows: a group administered with physiological saline (10 μL) every 5 days for 8 weeks; a group administered with a hyaluronic acid solution (10 mg/mL, 10 μL); a group administered with an Amlexanox solution (100 μM, 10 μL), a group administered with a mixed solution (10 μL) of
Amlexanox (100 μM) and hyaluronic acid (10 mg/mL) (see FIG. 2A). Knee joint tissue sections of each group at a time point of 8 weeks after OA induction surgery were stained with safranin O. The results are shown in FIG. 2B (staining image).
In addition, the severity degree of OA was quantified by evaluating the stained sections based on histopathological grade recommended by OARSI.
Using the same method as in Example 2, a mixed solution of Amlexanox (100 μM) and hyaluronic acid (10 mg/mL) was administered to OA-induced mice every […] for 8 weeks (see FIG. 3A). […]

GRK5 = settings: reported in Reference 2; cited from earlier work
IL6 = IL6 mRNA expression in LPS-stimulated human OA cartilage cells (quantitative real-time PCR); format: cell-based; settings: Amlexanox 100 μM and/or hyaluronic acid 1 mg/mL, 48 hours, LPS 10 μg/mL 6 hours, GAPDH internal standard
Protocol: as §1, §2, §3

[2] = after intraarticular administration; cited from earlier work

With CC(C)c1ccc2oc3nc(N)c(C(=O)O)cc3c(=O)c2c1 [Amlexanox, 2-amino-7-isopropyl-5-oxo-5H-[1]benzopyrano [2,3-b]-pyridine-3-carboxylic acid] the “ADAMTS4 expression, control ratio” value (ADAMTS4) was 42.04%, the “MMP13 expression, control ratio” value (MMP13) was 43.83% and the “OARSI score, control group ratio” value [1] was 56.95%. For the same compound, the “GRK5 inhibition (selectivity, in words)” value (GRK5) was “selectively inhibits GRK5”, the “IL6 expression, control ratio” value (IL6) was 32.99% and the “half-life in joint fluid / in the joint” value [2] was “several hours”.
